Data taken from ChEMBL document CHEMBL3885881, “DrugMatrix”.

Species: Rattus norvegicus
Assay: DrugMatrix - Regimen: Daily Repeat
Type: toxicity, organism-based, Sprague-Dawley
Design: regimen Daily Repeat, gender Male, age 6-8 weeks
Details: in vivo, po, route oral GAVAGE, vehicle 100 % WATER; for ABSOLUTE BASOPHIL / ABSOLUTE EOSINOPHIL / ABSOLUTE LYMPHOCYTE / ABSOLUTE MONOCYTE / ABSOLUTE SEGMENTED NEUTROPHIL / BASOPHIL / EOSINOPHIL / ERYTHROCYTE COUNT / HEMATOCRIT / HEMOGLOBIN / LEUKOCYTE COUNT / LYMPHOCYTE / MEAN CORPUSCULAR HEMOGLOBIN / MEAN CORPUSCULAR HEMOGLOBIN CONCENTRATION / MEAN CORPUSCULAR VOLUME / MONOCYTE / NEUTROPHIL / NUCLEATED RED BLOOD CELLS / PLATELET COUNT: tissue Blood; for ALANINE AMINOTRANSFERASE / ALBUMIN / ALKALINE PHOSPHATASE / ASPARTATE AMINOTRANSFERASE / BLOOD UREA NITROGEN / CARBON DIOXIDE / CHLORIDE / CHOLESTEROL / CREATINE PHOSPHOKINASE / CREATININE / GLUCOSE / LACTATE DEHYDROGENASE / LIPASE / PHOSPHORUS / POTASSIUM / SODIUM / TOTAL BILIRUBIN / TOTAL PROTEIN / URIC ACID: tissue Plasma
[1] = 30 mg/kg, 72 h, dose level Low, time 3 day
[2] = 30 mg/kg, 120 h, dose level Low, time 5 day
[3] = 1000 mg/kg, 72 h, dose level High, time 3 day
[4] = 1000 mg/kg, 120 h, dose level High, time 5 day

CCCCc1nc(Cl)c(CO)n1Cc1ccc(-c2ccccc2-c2nn[nH]n2)cc1 [LOSARTAN]
ABSOLUTE BASOPHIL [1]: 0 CELLS/uL
ABSOLUTE EOSINOPHIL [1]: 0 CELLS/uL
ABSOLUTE LYMPHOCYTE [1]: 14016.67 CELLS/uL
ABSOLUTE MONOCYTE [1]: 389.33 CELLS/uL
ABSOLUTE SEGMENTED NEUTROPHIL [1]: 894 CELLS/uL
BASOPHIL [1]: 0%
EOSINOPHIL [1]: 0%
ERYTHROCYTE COUNT [1]: 5.45 x10E6/uL
HEMATOCRIT [1]: 35.03%
HEMOGLOBIN [1]: 13.17 G/DL
LEUKOCYTE COUNT [1]: 15.3 x10E3/uL
LYMPHOCYTE [1]: 91.33%
MEAN CORPUSCULAR HEMOGLOBIN [1]: 24.17 pg
MEAN CORPUSCULAR HEMOGLOBIN CONCENTRATION [1]: 37.6 G/DL
MEAN CORPUSCULAR VOLUME [1]: 64.2 fL
MONOCYTE [1]: 2.67%
NEUTROPHIL [1]: 6%
NUCLEATED RED BLOOD CELLS [1]: 0 /100WBC
PLATELET COUNT [1]: 1281.67 x10E3/uL
ALANINE AMINOTRANSFERASE [1]: 42 u/L
ALBUMIN [1]: 4.4 G/DL
ALKALINE PHOSPHATASE [1]: 318.67 u/L
ASPARTATE AMINOTRANSFERASE [1]: 77.33 u/L
BLOOD UREA NITROGEN [1]: 20 mg/dL
CARBON DIOXIDE [1]: 25 mmol/L
CHLORIDE [1]: 103 MEQ/L
CHOLESTEROL [1]: 78 mg/dL
CREATINE PHOSPHOKINASE [1]: 190.67 u/L
CREATININE [1]: 0.23 mg/dL
GLUCOSE [1]: 178 mg/dL
LACTATE DEHYDROGENASE [1]: 89.33 u/L
LIPASE [1]: 9.33 u/L
PHOSPHORUS [1]: 13.6 mg/dL
POTASSIUM [1]: 7.08 MEQ/L
SODIUM [1]: 145.07 MEQ/L
TOTAL BILIRUBIN [1]: 0.17 mg/dL
TOTAL PROTEIN [1]: 6.1 G/DL
URIC ACID [1]: 2.83 mg/dL
ABSOLUTE BASOPHIL [2]: 0 CELLS/uL
ABSOLUTE EOSINOPHIL [2]: 152.67 CELLS/uL
ABSOLUTE LYMPHOCYTE [2]: 13450.67 CELLS/uL
ABSOLUTE MONOCYTE [2]: 299.67 CELLS/uL
ABSOLUTE SEGMENTED NEUTROPHIL [2]: 963.67 CELLS/uL
BASOPHIL [2]: 0%
EOSINOPHIL [2]: 1.33%
ERYTHROCYTE COUNT [2]: 5.55 x10E6/uL
HEMATOCRIT [2]: 35.3%
HEMOGLOBIN [2]: 13.53 G/DL
LEUKOCYTE COUNT [2]: 14.87 x10E3/uL
LYMPHOCYTE [2]: 90%
MEAN CORPUSCULAR HEMOGLOBIN [2]: 24.37 pg
MEAN CORPUSCULAR HEMOGLOBIN CONCENTRATION [2]: 38.33 G/DL
MEAN CORPUSCULAR VOLUME [2]: 63.6 fL
MONOCYTE [2]: 2%
NEUTROPHIL [2]: 6.67%
NUCLEATED RED BLOOD CELLS [2]: 0.33 /100WBC
PLATELET COUNT [2]: 1227.33 x10E3/uL
ALANINE AMINOTRANSFERASE [2]: 55 u/L
ALBUMIN [2]: 4.43 G/DL
ALKALINE PHOSPHATASE [2]: 365.33 u/L
ASPARTATE AMINOTRANSFERASE [2]: 83.67 u/L
BLOOD UREA NITROGEN [2]: 26 mg/dL
CARBON DIOXIDE [2]: 23.67 mmol/L
CHLORIDE [2]: 109 MEQ/L
CHOLESTEROL [2]: 82 mg/dL
CREATINE PHOSPHOKINASE [2]: 302.33 u/L
CREATININE [2]: 0.19 mg/dL
GLUCOSE [2]: 156.67 mg/dL
LACTATE DEHYDROGENASE [2]: 189 u/L
LIPASE [2]: 9.5 u/L
PHOSPHORUS [2]: 12.1 mg/dL
POTASSIUM [2]: 6.02 MEQ/L
SODIUM [2]: 144.45 MEQ/L
TOTAL BILIRUBIN [2]: 0.0667 mg/dL
TOTAL PROTEIN [2]: 6.2 G/DL
URIC ACID [2]: 1.5 mg/dL
ABSOLUTE BASOPHIL [3]: 0 CELLS/uL
ABSOLUTE EOSINOPHIL [3]: 0 CELLS/uL
ABSOLUTE LYMPHOCYTE [3]: 16308 CELLS/uL
ABSOLUTE MONOCYTE [3]: 476 CELLS/uL
ABSOLUTE SEGMENTED NEUTROPHIL [3]: 949.33 CELLS/uL
BASOPHIL [3]: 0%
EOSINOPHIL [3]: 0%
ERYTHROCYTE COUNT [3]: 5.24 x10E6/uL
HEMATOCRIT [3]: 33.6%
HEMOGLOBIN [3]: 12.73 G/DL
LEUKOCYTE COUNT [3]: 17.73 x10E3/uL
LYMPHOCYTE [3]: 92.33%
MEAN CORPUSCULAR HEMOGLOBIN [3]: 24.3 pg
MEAN CORPUSCULAR HEMOGLOBIN CONCENTRATION [3]: 37.9 G/DL
MEAN CORPUSCULAR VOLUME [3]: 64.13 fL
MONOCYTE [3]: 2.67%
NEUTROPHIL [3]: 5%
NUCLEATED RED BLOOD CELLS [3]: 0 /100WBC
PLATELET COUNT [3]: 1384.67 x10E3/uL
ALANINE AMINOTRANSFERASE [3]: 41.67 u/L
ALBUMIN [3]: 4.4 G/DL
ALKALINE PHOSPHATASE [3]: 365.67 u/L
ASPARTATE AMINOTRANSFERASE [3]: 77.33 u/L
BLOOD UREA NITROGEN [3]: 39.33 mg/dL
CARBON DIOXIDE [3]: 21.67 mmol/L
CHLORIDE [3]: 106.33 MEQ/L
CHOLESTEROL [3]: 96 mg/dL
CREATINE PHOSPHOKINASE [3]: 290.67 u/L
CREATININE [3]: 0.26 mg/dL
GLUCOSE [3]: 165.33 mg/dL
LACTATE DEHYDROGENASE [3]: 296 u/L
LIPASE [3]: 10 u/L
PHOSPHORUS [3]: 12.6 mg/dL
POTASSIUM [3]: 6.89 MEQ/L
SODIUM [3]: 144.3 MEQ/L
TOTAL BILIRUBIN [3]: 0.2 mg/dL
TOTAL PROTEIN [3]: 5.93 G/DL
URIC ACID [3]: 1.73 mg/dL
ABSOLUTE BASOPHIL [4]: 0 CELLS/uL
ABSOLUTE EOSINOPHIL [4]: 186 CELLS/uL
ABSOLUTE LYMPHOCYTE [4]: 17950.67 CELLS/uL
ABSOLUTE MONOCYTE [4]: 194 CELLS/uL
ABSOLUTE SEGMENTED NEUTROPHIL [4]: 1069.33 CELLS/uL
BASOPHIL [4]: 0%
EOSINOPHIL [4]: 1%
ERYTHROCYTE COUNT [4]: 5.34 x10E6/uL
HEMATOCRIT [4]: 32.67%
HEMOGLOBIN [4]: 12.67 G/DL
LEUKOCYTE COUNT [4]: 19.4 x10E3/uL
LYMPHOCYTE [4]: 92.67%
MEAN CORPUSCULAR HEMOGLOBIN [4]: 23.73 pg
MEAN CORPUSCULAR HEMOGLOBIN CONCENTRATION [4]: 38.77 G/DL
MEAN CORPUSCULAR VOLUME [4]: 61.27 fL
MONOCYTE [4]: 1%
NEUTROPHIL [4]: 5.33%
NUCLEATED RED BLOOD CELLS [4]: 0 /100WBC
PLATELET COUNT [4]: 1450.33 x10E3/uL
ALANINE AMINOTRANSFERASE [4]: 48.67 u/L
ALBUMIN [4]: 4.4 G/DL
ALKALINE PHOSPHATASE [4]: 418.33 u/L
ASPARTATE AMINOTRANSFERASE [4]: 72 u/L
BLOOD UREA NITROGEN [4]: 59.67 mg/dL
CARBON DIOXIDE [4]: 24.33 mmol/L
CHLORIDE [4]: 110.67 MEQ/L
CHOLESTEROL [4]: 80.67 mg/dL
CREATINE PHOSPHOKINASE [4]: 480.33 u/L
CREATININE [4]: 0.37 mg/dL
GLUCOSE [4]: 175.33 mg/dL
LACTATE DEHYDROGENASE [4]: 59.33 u/L
LIPASE [4]: 9 u/L
PHOSPHORUS [4]: 11.37 mg/dL
POTASSIUM [4]: 7.02 MEQ/L
SODIUM [4]: 146.03 MEQ/L
TOTAL BILIRUBIN [4]: 0.13 mg/dL
TOTAL PROTEIN [4]: 5.9 G/DL
URIC ACID [4]: 1.83 mg/dL
